For this experiment, the target named is recombinant human SYK (GST-hSYK fusion protein) (Homo sapiens (Human), UniProt P43405).
Where [1] appears, read: read-out: rhSYK Activity, Table 33B.
[2] abbreviates: read-out: rhSYK Activity, recombinant human SYK, HTRF assay, class symbols.
[3] abbreviates: read-out: rhSYK Activity, Table 36A.
The mark [4] stands for this setting: read-out: rhSYK Activity, Table 113C.
Setting [5] is: read-out: rhSYK Activity, Table 119, HTRF assay, IC50 class symbols.
The mark [6] stands for this setting: read-out: rhSYK Activity, Table 33D.
[7] abbreviates: read-out: rhSYK Activity, Table 113A.
[8] abbreviates: read-out: rhSYK Activity, Table 15.
Where [9] appears, read: read-out: rhSYK Activity, Table 33-A.

This is an account of results in patent US8759366B2, “Aminopyrimidines as SYK inhibitors” (Merck Sharp & Dohme Corp., priority 2009, dated 2014).

Read-outs that look alike come from different tables or passages of the source.

Excerpt: Homogeneous Time-Resolved Fluorescence (HTRF) Assay for the Recombinant Human SYK Enzyme:

With `Cc1cc(Nc2nccc(C(F)(F)F)n2)cc(-c2cnc(C3(O)CCCC(c4ccc(C(=O)O)cc4)C3)s2)c1` (single isomer, unassigned) [Example 33B-16], under setting [1], the IC50 was less than 0.1 µM.

As to `Cc1cc(Nc2nccc(C(F)(F)F)n2)cc(-c2cnc(C3(O)CCN(C(=O)Nc4cc(Cl)ccc4C)CC3)s2)c1` [Example 54A-68], the IC50 under setting [2] was less than 0.1 µM.

`Cc1cc(Nc2nccc(C(F)(F)F)n2)cc(-c2cnc(C3(O)CCCN(CCF)CC3)s2)c1` (stereo not shown) [Example 54A-82]: the IC50 under setting [2] is less than 0.1 µM. With `O=C(O)C1CCC(c2ncc(-c3cccc(Nc4nccc(C(F)(F)F)n4)c3)s2)CC1` (stereo not shown) [Example 36A-4], the IC50 under setting [3] is less than 0.1 µM. Turning to `Cc1cc(Nc2nccc(C(F)(F)F)n2)cc(-c2cnc(C3(O)CC(C(=O)O)C(C)(C)C3)s2)c1` (single isomer, unassigned) [Example 33B-5], the IC50 under setting [1] is less than 0.1 µM. Regarding `COc1nc(Nc2cc(C)cc(-c3cnc(C4(O)CCNC(=O)CC4)s3)c2)ncc1F` (stereo not shown) [113C-6], under setting [4], the IC50 was less than 0.1 µM. With `Cc1cc(Nc2nccc(C(F)(F)F)n2)cc(-c2cnc(C3(O)CCC(C(=O)N(C)C4CCOC4)CC3)s2)c1` (stereo not shown) [Example 119-48], the IC50 under setting [5] was less than 0.1 µM. For `COC(=O)NS(=O)(=O)N1CCC(O)(c2ncc(-c3cc(C)cc(Nc4nccc(OC)n4)c3)s2)CC1` [Example 54A-18], the IC50 under setting [2] is less than 0.1 µM. Turning to `COc1nc(Nc2cc(C)cc(-c3cnc(C4(O)CCCNCC4)s3)c2)ncc1Cl` (single isomer, unassigned) [113C-16], the IC50 under setting [4] is less than 0.1 µM. On to `COc1nc(Nc2cc(C)cc(-c3cnc(C4(O)CCCNCC4)s3)c2)ncc1Cl` (single isomer, unassigned) [113C-15], for which the IC50 under setting [4] was less than 0.1 µM. Take `COC(=O)c1ccc(C(C)(O)c2ncc(-c3cc(C)cc(Nc4nccc(C(F)(F)F)n4)c3)s2)cc1` (stereo not shown) [Example 33D-17]: the IC50 under setting [6] was in the range of 0.1 to 1 µM. Turning to `COc1nc(Nc2cc(C)cc(-c3cnc(C4(O)CCNC(=O)CC4)s3)c2)ncc1Cl` (stereo not shown) [113C-11], the IC50 under setting [4] was less than 0.1 µM.

On to `Cc1cc(Nc2ncc(F)c(C)n2)cc(-c2cnc([C@@]3(O)CC[C@H](C(=O)O)[C@H](C)C3)s2)c1` [Example 113A-18], for which, under setting [7], the IC50 was less than 0.1 µM. For the compound `COC1CC(O)(c2ncc(-c3cc(C)cc(Nc4nccc(C(F)(F)F)n4)c3)s2)CCC1C(=O)O` (stereo not shown) [Example 33B-14], the IC50 under setting [1] was less than 0.1 µM. `Cc1cc(Nc2nccc(C(F)(F)F)n2)cc(-c2cnc(C3(O)CCC(C(=O)O)C(C)C3C)s2)c1` (single isomer, unassigned) [Example 33B-38]: the IC50 under setting [1] was less than 0.1 µM. As for `Cc1cc(Nc2nccc(C(F)(F)F)n2)cc(-c2cnc(C3(O)CCN(C(=O)Nc4ccc(Cl)cc4C)CC3)s2)c1` [Example 54A-69], the IC50 under setting [2] is less than 0.1 µM. As for `CCOC(=O)C1CCC(F)(c2ncc(-c3cccc(Nc4nccc(C(F)(F)F)n4)c3)s2)CC1` (stereo not shown) [Example 26-5], the IC50 (read-out: rhSYK Activity, Table 26) was 1 to 10 µM. For `Cc1cc(Nc2nccc(C(F)(F)F)n2)cc(-c2cnc(C3(O)CC(C(=O)O)C(C)(C)C3)s2)c1` (single isomer, unassigned) [Example 33B-7], the IC50 under setting [1] was less than 0.1 µM. For the compound `CCOC(=O)C1CCC(O)(c2ncc(-c3cc(C)cc(Nc4nccc(C(F)(F)F)n4)c3)s2)C(C)C1C` (stereo not shown) [Example 113A-77], the IC50 under setting [7] is less than 0.1 µM. For `Cc1cc(Nc2nccc(OC3CCNCC3)n2)cc(-c2cnc(C3(NC(=O)NC(N)=O)CCC3)s2)c1` [Example 65-5], for the setting “read-out: rhSYK activity”, the IC50 was less than 0.1 µM.

As to `Cc1cc(Nc2nccc(C(F)(F)F)n2)cc(-c2cnc(C3(O)CCC(C(=O)O)C(C(C)C)C3)s2)c1` (single isomer, unassigned) [Example 33B-23], under setting [1], the IC50 is less than 0.1 µM.

With `Cc1cc(Nc2nccc(C(F)(F)F)n2)cc(-c2cnc(C3(NS(=O)(=O)C(F)(F)F)COC3)s2)c1` [Example 61B-6], the IC50 (read-out: rhSYK activity) was less than 0.1 µM. With `COc1ccc(Cn2cc(-c3ccnc(Nc4cc(C)cc(-c5cnc(C6(O)CCC(C(=O)O)CC6)s5)c4)n3)nn2)cc1` (stereo not shown) [116A-17], under “read-out: rhSYK Activity, Table 116A”, the IC50 was less than 0.1 µM. Turning to `Cc1cc(Nc2nccc(C(F)(F)F)n2)cc(-c2cnc(C(C)(O)c3ccc(C(=O)O)cc3)s2)c1` (stereo not shown) [Example 33D-16], the IC50 under setting [6] is less than 0.1 µM. `Cc1cc(Nc2nccc(C(F)(F)F)n2)cc(-c2cnc(C3(O)CCC(C(=O)NCCN4CCCC4=O)CC3)s2)c1` (stereo not shown) [Example 119-78]: under setting [5], the IC50 was less than 0.1 µM.

In the case of `Cc1cc(Nc2nccc(C(F)(F)F)n2)cc(-c2cnc(C3(O)CCCN(CC(F)(F)F)CC3)s2)c1` (single isomer, unassigned) [Example 54A-85], the IC50 under setting [2] is less than 0.1 µM. On to `Cc1cc(Nc2nccc(C(F)(F)F)n2)cc(-c2cnc(C3(O)CCC(C(=O)O)OC3)s2)c1` (single isomer, unassigned) [Example 113D-11], for which the IC50 (read-out: rhSYK Activity, Table 113D, lower part (Structure)) is less than 0.1 µM.

For the compound `Cc1cc(Nc2nccc(C)n2)cc(-c2cnc(C3(O)CCC(C(=O)O)C(c4ccsc4)C3)s2)c1` (stereo not shown) [Example 33B-30], under setting [1], the IC50 fell in the range of 0.1 to 1 µM.

For the compound `Cc1cc(Nc2nccc(C(F)(F)F)n2)cc(-c2cnc(C3(O)CCC(C(=O)NCc4ccno4)CC3)s2)c1` (stereo not shown) [Example 119-43], under setting [5], the IC50 is less than 0.1 µM.

On to `Cc1cc(Nc2nccc(C(F)(F)F)n2)cc(-c2cnc(C3CCC4(CC3)OCCO4)s2)c1` [Example 36A-12], for which the IC50 under setting [3] fell in the range of 0.1 to 1 µM. With `Cc1cc(Nc2nccc(C(F)(F)F)n2)cc(-c2cnc(C3(O)CCC(C(=O)NCc4cc(-c5ccccn5)no4)CC3)s2)c1` (stereo not shown) [Example 119-101], the IC50 under setting [5] was less than 0.1 µM. Consider `Cc1cc(Nc2nccc(C(F)(F)F)n2)cc(-c2cnc(C3(O)CCC(C(=O)NCCN4CCOCC4)CC3)s2)c1` (stereo not shown) [Example 119-80], for which the IC50 under setting [5] is less than 0.1 µM.

In the case of `Cc1cc(Nc2nccc(OC3CCNCC3)n2)cc(-c2cnc(C3(NC(N)=O)CCC3)s2)c1` [Example 64-5], the IC50 (read-out: rhSYK activity) is less than 0.1 µM.

Turning to `Cc1cc(Nc2nccc(C(F)(F)F)n2)cc(-c2cnc(C3(O)CCN(C(=O)Nc4ccc(C)cc4C)CC3)s2)c1` [Example 54A-66], the IC50 under setting [2] was less than 0.1 µM. As for `Cc1cc(Nc2nccc(C(C)C)n2)cc(-c2cnc(C3(O)CCCN(C(=O)OC(C)(C)C)CC3)s2)c1` (single isomer, unassigned) [113C-20], under setting [4], the IC50 lay in the range of 0.1 to 1 µM. For `Cc1cc(Nc2nccc(C(F)(F)F)n2)cc(-c2cnc(C3(O)CCC(C(=O)NCc4nncs4)CC3)s2)c1` (stereo not shown) [Example 119-67], under setting [5], the IC50 was less than 0.1 µM. Take `Cc1cc(Nc2nccc(C)n2)cc(-c2cnc(C3(O)CCC(C(=O)O)C(c4ccc(F)cc4)C3)s2)c1` (stereo not shown) [Example 33B-31]: the IC50 under setting [1] is less than 0.1 µM. On to `COC(=O)[C@H]1CC[C@](O)(c2ncc(-c3cc(C)cc(Nc4nccc(C(F)(F)F)n4)c3)s2)CC1(C)C` [Example 113A-65], for which, under setting [7], the IC50 was less than 0.1 µM. For the compound `Cc1cc(Nc2nccc(C(F)(F)F)n2)cc(-c2cnc(C3(O)CCC(C(=O)NCCN4CCNC4=O)CC3)s2)c1` (stereo not shown) [Example 119-79], the IC50 under setting [5] is less than 0.1 µM. `Cc1cc(Nc2nccc(C(F)(F)F)n2)cc(-c2cnc(C3(O)CN(C(N)=O)C3)s2)c1` [Example 54B-1]: under setting [2], the IC50 is less than 0.1 µM.

In the case of `CCC1C(C)C(C(=O)O)CCC1(O)c1ncc(-c2cc(C)cc(Nc3nccc(C(F)(F)F)n3)c2)s1` (single isomer, unassigned) [Example 33B-41], the IC50 under setting [1] was less than 0.1 µM.

On to `Cc1cc(Nc2ncc(F)c(C)n2)cc(-c2cnc(C3(O)CCNC(=O)CC3)s2)c1` (stereo not shown) [113C-1], for which, under setting [4], the IC50 is less than 0.1 µM. For the compound `CC(O)(c1ncc(-c2cccc(Nc3nccc(C(F)(F)F)n3)c2)s1)C1CC1` (stereo not shown) [Example 15-3], the IC50 under setting [8] is less than 0.1 µM.

For `Cc1cc(Nc2ncc(F)c(C)n2)cc(-c2cnc(C3(O)CCC(C(=O)O)C(C)(C)C3C)s2)c1` (stereo not shown) [33A-74], the IC50 under setting [9] is less than 0.1 µM. On to `OC(c1ncc(-c2cccc(Nc3nccc(C(F)(F)F)n3)c2)s1)(C1CC1)C1CC1` [Example 15-1], for which the IC50 under setting [8] was less than 0.1 µM. As to `CCCCNC(=O)N1CCC(O)(c2ncc(-c3cc(C)cc(Nc4nccc(C(F)(F)F)n4)c3)s2)CC1` [Example 54A-61], the IC50 under setting [2] is less than 0.1 µM.

Turning to `COc1nc(Nc2cc(C)cc(-c3cnc(C4(O)CCN(C(N)=O)C4)s3)c2)ncc1F` (stereo not shown) [Example 54B-18], the IC50 under setting [2] was less than 0.1 µM.

For the compound `Cc1cc(Nc2nccc(C(F)(F)F)n2)cc(-c2cnc(C3CCCC(=O)C3)s2)c1` (stereo not shown) [Example 36A-8], the IC50 under setting [3] was less than 0.1 µM. As to `CCC1C(C)C(C(=O)O)CCC1(O)c1ncc(-c2cc(C)cc(Nc3nccc(C(F)(F)F)n3)c2)s1` (single isomer, unassigned) [Example 33B-42], under setting [1], the IC50 is less than 0.1 µM. On to `Cc1cc(Nc2nccc(C(F)(F)F)n2)cc(-c2cnc(C(C)(O)c3ccc(NC(=O)CCCC(=O)O)cc3)s2)c1` (stereo not shown) [Example 33D-15], for which the IC50 under setting [6] was less than 0.1 µM. For `Cc1cc(Nc2nccc(C(C)(C)C)n2)cc(-c2cnc(C3(O)CCNC(=O)CC3)s2)c1` (stereo not shown) [113C-9], the IC50 under setting [4] is less than 0.1 µM.

With `Cc1cc(Nc2nccc(C3CC3)n2)cc(-c2cnc(C3(O)CCNC(=O)CC3)s2)c1` (stereo not shown) [113C-2], the IC50 under setting [4] was less than 0.1 µM. Consider `Cc1cc(Nc2nccc(C(F)(F)F)n2)cc(-c2cnc(C3(O)CCC(C(=O)NCc4ccc(S(N)(=O)=O)cc4)CC3)s2)c1` (stereo not shown) [Example 119-104], for which, under setting [5], the IC50 is less than 0.1 µM. As to `CCOC(=O)C1CCC(O)(c2ncc(-c3cc(C)cc(Nc4nccc(C(F)(F)F)n4)c3)s2)CC1` (stereo not shown) [33A-5], under setting [9], the IC50 is less than 0.1 µM. `Cc1cc(Nc2nccc(C(F)(F)F)n2)cc(-c2cnc(C3(O)CCC(C(=O)NCc4ncc[nH]4)CC3)s2)c1` (stereo not shown) [Example 119-38]: under setting [5], the IC50 was less than 0.1 µM. On to `CCCSc1ccnc(Nc2cc(C)cc(-c3cnc(C4(O)CCC4)s3)c2)n1` [Example 108A-42], for which the IC50 (read-out: rhSYK activity) was less than 0.1 µM. As for `Cc1cc(Nc2nccc(C(F)(F)F)n2)cc(-c2cnc(C3(O)CCC(C(=O)NCCN4CCCCC4=O)CC3)s2)c1` (stereo not shown) [Example 119-89], under setting [5], the IC50 was less than 0.1 µM. As for `Cc1cc(Nc2nccc(C(F)(F)F)n2)cc(-c2cnc(C3(O)CCCC3Cc3ccc(C(C)C(=O)O)cc3)s2)c1` (stereo not shown) [Example 33B-2], under setting [1], the IC50 was less than 0.1 µM.
